Results from PubChem BioAssay (NCI).
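Cultured in 96-well plates, cells were exposed to test compound for 48 hours across five concentrations. Here, GI50 denotes the concentration required for 50% inhibition of growth. The concentration for full growth arrest is given as TGI.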

What was measured:
Experiment in all cases: NCI-60 cell line screen, 48 h
[1] = tested on: 786-0 renal
[2] = tested on: A498 renal
[3] = tested on: A549 NSCLC
[4] = tested on: ACHN renal
[5] = tested on: BT-549 breast
[6] = tested on: CAKI-1 renal
[7] = tested on: CCRF-CEM leukemia
[8] = tested on: COLO 205 colon
[9] = tested on: DU-145 prostate
[10] = tested on: EKVX NSCLC
[11] = tested on: HCC-2998 colon
[12] = tested on: HCT-116 colon
[13] = tested on: HCT-15 colon
[14] = tested on: HOP-62 NSCLC
[15] = tested on: HOP-92 NSCLC
[16] = tested on: HS 578T breast
[17] = tested on: HT29 colon
[18] = tested on: IGROV1 ovarian
[19] = tested on: KM12 colon
[20] = tested on: LOX IMVI melanoma
[21] = tested on: M14 melanoma
[22] = tested on: MALME-3M melanoma
[23] = tested on: MCF7 breast
[24] = tested on: MDA-MB-231 breast
[25] = tested on: MDA-MB-435
[26] = tested on: NCI-H226 lung
[27] = tested on: NCI-H460 lung
[28] = tested on: NCI-H522 lung
[29] = tested on: NCI/ADR-RES ovarian
[30] = tested on: OVCAR-3 ovarian
[31] = tested on: OVCAR-4 ovarian
[32] = tested on: OVCAR-5 ovarian
[33] = tested on: OVCAR-8 ovarian
[34] = tested on: PC-3 prostate
[35] = tested on: RPMI-8226 leukemia
[36] = tested on: RXF 393 renal
[37] = tested on: SF-268 CNS
[38] = tested on: SF-295 CNS
[39] = tested on: SF-539 CNS
[40] = tested on: SK-MEL-2 melanoma
[41] = tested on: SK-MEL-28 melanoma
[42] = tested on: SK-MEL-5 melanoma
[43] = tested on: SK-OV-3 ovarian
[44] = tested on: SN12C renal
[45] = tested on: SNB-19 CNS
[46] = tested on: SNB-75 CNS
[47] = tested on: SW-620 colon
[48] = tested on: T-47D breast
[49] = tested on: TK-10 renal
[50] = tested on: U251 CNS
[51] = tested on: UACC-257 melanoma
[52] = tested on: UACC-62 melanoma
[53] = tested on: UO-31 renal

N#Cc1nc(-c2ccccc2)oc1S(=O)(=O)N1CCCCC1
GI50 [1]: 18.7 µM
TGI [1]: 52.4 µM
GI50 [2]: > 100 µM
TGI [2]: > 100 µM
GI50 [3]: 71.7 µM
TGI [3]: > 100 µM
GI50 [4]: 4.98 µM
TGI [4]: 16.5 µM
GI50 [5]: 13.7 µM
TGI [5]: 48.8 µM
GI50 [6]: 7.37 µM
TGI [6]: 20.3 µM
GI50 [7]: 2.36 µM
TGI [7]: > 100 µM
GI50 [8]: 2.67 µM
TGI [8]: 7.1 µM
GI50 [9]: 15.3 µM
TGI [9]: 28.6 µM
GI50 [10]: > 100 µM
TGI [10]: > 100 µM
GI50 [11]: 17.1 µM
TGI [11]: 32.8 µM
GI50 [12]: 4.95 µM
TGI [12]: 23.6 µM
GI50 [13]: 5.32 µM
TGI [13]: 25.8 µM
GI50 [14]: > 100 µM
TGI [14]: > 100 µM
GI50 [15]: 6.29 µM
TGI [15]: 19.6 µM
GI50 [16]: 23.1 µM
TGI [16]: 87.2 µM
GI50 [17]: 12.4 µM
TGI [17]: 28.4 µM
GI50 [18]: 28.7 µM
TGI [18]: > 100 µM
GI50 [19]: 29.1 µM
TGI [19]: > 100 µM
GI50 [20]: 1.51 µM
TGI [20]: 5.24 µM
GI50 [21]: 11.2 µM
TGI [21]: 61 µM
GI50 [22]: 10.8 µM
TGI [22]: 32 µM
GI50 [23]: 9.02 µM
TGI [23]: 26.9 µM
GI50 [24]: 25.4 µM
TGI [24]: 80.7 µM
GI50 [25]: 14.6 µM
TGI [25]: 31.2 µM
GI50 [26]: 10.3 µM
TGI [26]: 26.5 µM
GI50 [27]: 26.6 µM
TGI [27]: > 100 µM
GI50 [28]: 2.08 µM
TGI [28]: 7.94 µM
GI50 [29]: 30.8 µM
TGI [29]: > 100 µM
GI50 [30]: 10.5 µM
TGI [30]: 24.4 µM
GI50 [31]: 14.2 µM
TGI [31]: 32.3 µM
GI50 [32]: 21.9 µM
TGI [32]: 52.8 µM
GI50 [33]: 22.1 µM
TGI [33]: 56.5 µM
GI50 [34]: 19.4 µM
TGI [34]: 53.6 µM
GI50 [35]: 17.5 µM
TGI [35]: 49.5 µM
GI50 [36]: 9.52 µM
TGI [36]: 22.7 µM
GI50 [37]: 26.6 µM
TGI [37]: > 100 µM
GI50 [38]: > 100 µM
TGI [38]: > 100 µM
GI50 [39]: 17.5 µM
TGI [39]: 34.3 µM
GI50 [40]: 15.3 µM
TGI [40]: 45.1 µM
GI50 [41]: 17.5 µM
TGI [41]: 33.8 µM
GI50 [42]: 30.9 µM
TGI [42]: > 100 µM
GI50 [43]: > 100 µM
TGI [43]: > 100 µM
GI50 [44]: 14.9 µM
TGI [44]: 47.5 µM
GI50 [45]: 72.3 µM
TGI [45]: > 100 µM
GI50 [46]: 18.3 µM
TGI [46]: 43.8 µM
GI50 [47]: 4.17 µM
TGI [47]: 18.1 µM
GI50 [48]: 16.2 µM
TGI [48]: 36.8 µM
GI50 [49]: 22.1 µM
TGI [49]: 63.2 µM
GI50 [50]: 17.5 µM
TGI [50]: 36.8 µM
GI50 [51]: 17.8 µM
TGI [51]: 50.4 µM
GI50 [52]: 19.5 µM
TGI [52]: 49.6 µM
GI50 [53]: 15.1 µM
TGI [53]: 28.3 µM
